The values that follow come from paper PMC5684143, “New melanocortin-like peptide of E. coli can suppress inflammation via the mammalian melanocortin-1 receptor (MC1R): possible endocrine-like function for microbes of the gut” (NPJ Biofilms and Microbiomes, 2017).

Holding throughout (assay type): cell-based, murine
Experiment [1] concerns RAW 264.7 cells. Description: Cyclic-AMP production in RAW 264.7 cells. To be noted: 30 min, 37 °C, 1 mM IBMX, four experiments per peptide, each value from separate experiment(s). As for the experimental part: RAW 264.7 cells were grown to confluence in culture plates, harvested by classical methods, and then seeded onto 48-well plates (1 × 10^6/ml). Cells were incubated with peptide at 37 °C in Opti-MEM I serum-free medium containing 1 mM 3-isobutyl-1-methylxanthine. At 30 min, cells were lysed in the original wells. The lysates were extracted from the wells, and cyclic-AMP measurements carried out using the Biotrak kit (cyclic-AMP Biotrak Enzymeimmunoassay System, Amersham Biosciences) including a standard cyclic-AMP curve as recommended by the suppliers.[35]
RAW 264.7 cells were incubated with peptides for 30 minutes at 37 degrees. Cell lysates were extracted and c-AMP measurements carried out using a commercial kit [c-AMP biotrack-immunoassay system, Amersham Biosciences] with a c-AMP standard curve as recommended by the suppliers. […] The only experiment with ACTH is shown above. (Effects of LPS at 4 nanograms per ml. or of HMGB1 at 0.1 µg. per ml. on ligand-stimulated c-AMP accumulation were quite modest and inconsistent). […]

In experiment [2] the test system is RAW 264.7 cells. Description: LPS-induced HMGB1 release by RAW 264.7 cells (western blot). To be noted: LPS 100 ng/ml, peptide 10^-10 M, 16-20 hrs, four independent experiments, P < 0.01. As for the experimental part:
Murine macrophage-like RAW 264.7 cells were obtained from American Type Culture Collection, and were grown in Dulbecco’s Modified Eagle’s Medium (DMEM, Life Technologies) containing 10% (vol/vol) heat-inactivated fetal bovine serum (FBS, Hyclone Lab. Inc.), penicillin 100 U/ml, and streptomycin 100 μg/ml (BioWhittaker Inc.). Cells were suspended in medium and incubated in 24-well or 48-well tissue-culture plates overnight in a humidified incubator (37 °C, 5% CO2). Growth medium was removed and replaced by Opti-MEM I serum-free medium (Life Technologies) overnight. […]
The levels of HMGB1 in the culture medium or murine serum were measured by western immunoblotting as previously described.[30] […] The relative band intensity was quantified by using the NIH image 1.59 software. The levels of HMGB1 (expressed as % maximum effect) were calculated with reference to standard curves generated with purified rHMGB1 and expressed as mean ± SEM of four experiments.
Murine macrophage-like RAW 264.7 cells were incubated with LPS (100 ng/ml) in the absence or presence of MECO-1 or alpha-MSH at 10^-10 M. At 16-20 hrs after stimulation, aliquots of cell-free medium were examined. HMGB1 levels in the (conditioned) culture medium were expressed as mean ± SEM of four independent experiments with the peak level (obtained with LPS) set at 100%. […]
(In general: A western blot detects proteins with antibodies after separation by electrophoresis.)

In experiment [3] the test system is RAW 264.7 cells. Briefly: LPS-induced TNF release by RAW 264.7 cells. Particulars: for TNF-accumulated (% of control): peptide 10^-12 M, LPS 10 ng/ml, TNF by ELISA at 6 h, LPS alone set at 100%, mean ± SEM. As for the experimental part: Murine macrophage-like RAW 264.7 cells were obtained from American Type Culture Collection, and were grown in Dulbecco’s Modified Eagle’s Medium (DMEM, Life Technologies) containing 10% (vol/vol) heat-inactivated fetal bovine serum (FBS, Hyclone Lab. Inc.), penicillin 100 U/ml, and streptomycin 100 μg/ml (BioWhittaker Inc.). Cells were suspended in medium and incubated in 24-well or 48-well tissue-culture plates overnight in a humidified incubator (37 °C, 5% CO2). Growth medium was removed and replaced by Opti-MEM I serum-free medium (Life Technologies) overnight. In the experiments, cell monolayers were stimulated with HMGB1 or LPS, in the absence or presence of MECO-1 or alpha-MSH; cell-free supernatants were assayed for TNF by ELISA or HMGB1 by western blotting.
Concentrations of TNF and IL-6 were each determined using a commercially available enzyme-linked immunosorbent assay (ELISA) kit (R&D System Inc.) as previously described.[34] The levels of TNF or IL-6 were calculated with reference to standard curves.
Fig. 2 Cytokine-induced TNF release inhibited by MECO-1. a Lipopolysaccharide (LPS), derived from the cell wall of Gram-negative bacteria, is a TLR4 and TLR2 agonist. RAW 264.7 cells were treated with MECO-1 and LPS simultaneously and incubated overnight. Supernatants were tested for TNF with ELISA. b Poly I:C, synthetic double stranded RNA, is recognized by TLR3. RAW 264.7 cells were pre-treated with MECO-1 and then stimulated with Poly I:C. Supernatants were tested in ELISA by TNF. c Peptidoglycan (PGN), another TLR2 agonist, is ubiquitous in the cell wall of bacteria. RAW 264.7 cells were pre-treated with MECO-1 and then stimulated with PGN; after overnight stimulation, supernatants were harvested and tested for TNF ELISA. d HMGB-1. Each vertical bar is the mean of three experimental points, using HMGB-1 to induce TNF release. Three sets of three experiments were used for the measurement of inhibition
Fig. 5 a Bioactive analogues of MECO-1. Murine macrophage-like RAW 264.7 cells were incubated with lipopolysaccharide (LPS, 4 ng/ml) in the absence or presence of MECO-1 or BACTN or BACFR, synthetic peptides based on the C-termini of EF-G of Bacteroides thetaiotamicron and Bacteroides fragilis. EFG-2 refers to human mitochondrial EFG-2 (mtEFG2). For Bacteroides thetaiotamicron, we used a 38-mer consisting of residues 681–703 shown in Fig. 4c followed by 704–718 QDKLIKDFEAKQTEE. For Bacteroides fragilis, we used a 33-mer consisting of residues, 681–703 shown in Fig. 4c followed by 704–713 = QDKLIKDFES. At 6 h after stimulation, aliquots of cell-free medium were examined. In other experiments, the synthetic peptide based on human mitochondrial EF-G1 (mtEFG1) gave results indistinguishable from EF-G2 (data not shown). The precise structure of the synthetic peptides is indicated in the text (see section “Results” and Table 1). Shown is a representative experiment.
(In general: In an ELISA, binding on a coated surface is turned into a signal by an enzyme label.)

“And” between values parts separate entries of the source, which are not always exact repeats. Equal entries are not always repeated.

Regarding “alpha-melanocyte-stimulating hormone [alpha-MSH]”, the “peptide concentration at which statistically significant stimulation of cAMP was noted (single experiments)” value in the experiment with RAW 264.7 cells [1] was 10^-9 M and 10^-10 M. Also, in the experiment with RAW 264.7 cells [2], the “LPS-induced HMGB-1 secretion” value is on record as “markedly reduced”. In addition, the “peptide concentration at which attenuation of LPS-induced TNF-alpha release was observed” value with RAW 264.7 cells [3] (RAW 264.7 cells, overnight incubation, ELISA) is 10^−15 M. Besides, the “TNF-accumulated (% of control)” value is given as 67.05 ± 10.2 % of control in the experiment with RAW 264.7 cells [3] (agouti 0 pM, RAW 264.7 cells); 132.6 ± 4.9 % of control with RAW 264.7 cells [3] (agouti 10 pM, RAW 264.7 cells); 138.6 ± 12.4 % of control in the experiment with RAW 264.7 cells [3] (agouti 10^3 pM, RAW 264.7 cells); 122.2 ± 4.3 % of control in the experiment with RAW 264.7 cells [3] (agouti 10^5 pM, RAW 264.7 cells). The “inhibition of LPS-induced TNF-alpha release (valley)” value with RAW 264.7 cells [3] (at 10^−11–10^−10 M peptide, attenuation lost above 10^−10 M) is roughly 90%.
